Test results: publication PMC2876253, “MHC I Stabilizing Potential of Computer-Designed Octapeptides” (Journal of Biomedicine and Biotechnology, 2010)
Like-named read-outs stand apart in the source and are kept apart here. Where no end group is shown, it is not given here.

Assays:
H-2K^b [1] = biological target: T1, H-2K^b (Mus musculus, UniProt P01901); experiment: MHC I stabilization assay with TAP-deficient RMA-S cells; assay type: cell-based; details: peptide concentration for 50% of maximal MHC I stabilization (half-maximal MFI), 100 to 5.6 × 10^−4 μg/mL, 1 h room temperature then 1 h 37°C, flow cytometry with antibody B8.24.3, standard deviation in brackets, N = 3, n.d.: not detectable, read-out: Experimental EC50
T1 construct: For accumulation of peptide-free MHC I proteins at the cell surface, the cells were cultured for 16 hours at 26°C; endogenous in cells; host or cells: RMA-S cells (TAP-deficient mouse T lymphoma)
T1 sequence (P01901 22-369): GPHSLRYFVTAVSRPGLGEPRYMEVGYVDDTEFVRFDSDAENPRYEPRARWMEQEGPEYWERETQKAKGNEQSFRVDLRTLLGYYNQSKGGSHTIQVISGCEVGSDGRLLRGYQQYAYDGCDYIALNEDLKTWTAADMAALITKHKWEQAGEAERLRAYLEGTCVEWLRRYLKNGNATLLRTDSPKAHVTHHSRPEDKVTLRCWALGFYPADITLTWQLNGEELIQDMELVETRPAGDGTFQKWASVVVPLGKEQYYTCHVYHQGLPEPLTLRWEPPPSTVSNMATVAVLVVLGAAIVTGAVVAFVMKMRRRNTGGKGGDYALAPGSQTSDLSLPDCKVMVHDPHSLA
T1 sequence (P01887 21-119 partner): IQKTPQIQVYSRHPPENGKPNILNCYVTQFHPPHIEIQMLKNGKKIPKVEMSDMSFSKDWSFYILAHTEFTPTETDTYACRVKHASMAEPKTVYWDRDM
Protocol: The stabilization assay was performed as described by Brock et al. using TAP-deficient RMA-S cells (mutagenized Rauscher virus-induced T lymphoma cells of mouse origin). The cells were cultured in DMEM (Gibco-BRL, Karlsruhe, Germany) with 10% FCS (Sigma-Aldrich, Steinheim, Germany) at 37°C with 8% CO2. For accumulation of peptide-free MHC I proteins at the cell surface, the cells were cultured for 16 hours at 26°C. […] The stabilized MHC I proteins were visualized and quantified by flow cytometry using the H-2K^b specific monoclonal antibody B8.24.3 [23] purified in the laboratory from hybridoma culture supernatant by protein G affinity chromatography (Pierce, Darmstadt, Germany) and an R-Phycoerythrin-conjugated anti-mouse antibody (Dianova GmbH, Hamburg, Germany) as secondary reagent. The stabilizing effect of the peptides was determined as mean fluorescence intensity (MFI). The EC50 value is the peptide concentration that is required for half-maximal stabilization of the MHC I molecules at the cell surfaces (half-maximal MFI). All peptides were custom-synthesized by EMC microcollections GmbH (Tübingen, Germany).

H-2K^b [2] = biological target: T1, H-2K^b; design: method as in PMID 1606619; details: known nonstabilizing octapeptide; cited from earlier work

Sequence	EC50 (H-2K^b [1]; SD) [µM]	other results
FHHAHRTV [sequence 9]		EC50 (H-2K^b [1]): 9 µM
FHWDYRGL [Peptide 3]	25	
FRYIYHTL [Seq. 2]		EC50 (H-2K^b [1]): 20 µM
FRYPYKTL [Peptide 1]	24	
LSPFPFDL		H-2K^b stabilizing effect in words (H-2K^b [2]): nonstabilizing
WDFKFDSV [Peptide 7]	9	
WKFIFDPV [Peptide 8]	0.4	
WRFIYFNL [Peptide 6]	3.6	
WRFKYDNL [Peptide 4]	7	
WRFVYWRL [Peptide 5]	8	
